Results: PubChem BioAssay (NCI)
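GI50 = concentration required for 50% inhibition of growth. Definition used: TGI = concentration required for complete inhibition of growth.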

Legend:
Experiment in all cases: inhibition of tumour cell growth, NCI panel, 384-well format
NCI-H226 lung = system: NCI-H226 lung
SF-268 CNS = system: SF-268 CNS
TK-10 renal = system: TK-10 renal
EKVX NSCLC = system: EKVX NSCLC
MOLT-4 leukemia = system: MOLT-4 leukemia
NCI-H522 lung = system: NCI-H522 lung
UACC-257 melanoma = system: UACC-257 melanoma
A549 NSCLC = system: A549 NSCLC
NCI/ADR-RES ovarian = system: NCI/ADR-RES ovarian
LOX IMVI melanoma = system: LOX IMVI melanoma
ACHN renal = system: ACHN renal
HCC-2998 colon = system: HCC-2998 colon
OVCAR-8 ovarian = system: OVCAR-8 ovarian
HOP-62 NSCLC = system: HOP-62 NSCLC
UACC-62 melanoma = system: UACC-62 melanoma
786-0 renal = system: 786-0 renal
RPMI-8226 leukemia = system: RPMI-8226 leukemia
T-47D breast = system: T-47D breast
SK-OV-3 ovarian = system: SK-OV-3 ovarian
SK-MEL-28 melanoma = system: SK-MEL-28 melanoma
HT29 colon = system: HT29 colon
K-562 leukemia = system: K-562 leukemia
COLO 205 colon = system: COLO 205 colon
SNB-75 CNS = system: SNB-75 CNS
NCI-H23 lung = system: NCI-H23 lung
OVCAR-5 ovarian = system: OVCAR-5 ovarian
NCI-H322M lung = system: NCI-H322M lung
MDA-MB-435 melanoma = system: MDA-MB-435 melanoma
HS 578T breast = system: HS 578T breast
HCT-116 colon = system: HCT-116 colon
SF-295 CNS = system: SF-295 CNS
MDA-MB-468 breast = system: MDA-MB-468 breast
KM12 colon = system: KM12 colon
MALME-3M melanoma = system: MALME-3M melanoma
IGROV1 ovarian = system: IGROV1 ovarian
UO-31 renal = system: UO-31 renal
CCRF-CEM leukemia = system: CCRF-CEM leukemia
U251 glioblastoma = system: U251 glioblastoma
HL-60(TB) leukemia = system: HL-60(TB) leukemia
DU-145 prostate = system: DU-145 prostate
MCF7 breast = system: MCF7 breast
RXF 393 renal = system: RXF 393 renal
OVCAR-4 ovarian = system: OVCAR-4 ovarian
A498 renal = system: A498 renal
HOP-92 NSCLC = system: HOP-92 NSCLC
SK-MEL-5 melanoma = system: SK-MEL-5 melanoma
PC-3 prostate = system: PC-3 prostate
OVCAR-3 ovarian = system: OVCAR-3 ovarian
MDA-MB-231 breast = system: MDA-MB-231 breast
SN12C renal = system: SN12C renal
HCT-15 colon = system: HCT-15 colon
CAKI-1 renal = system: CAKI-1 renal
SF-539 CNS = system: SF-539 CNS
BT-549 breast = system: BT-549 breast
SW-620 colon = system: SW-620 colon
M14 melanoma = system: M14 melanoma
SNB-19 CNS = system: SNB-19 CNS
NCI-H460 NSCLC = system: NCI-H460 NSCLC

Work on `CNC(=O)c1cc2c(Oc3ccc(NC(=S)NC(=O)Cc4ccccc4)cc3F)ccnc2cc1OC` yielded a GI50 (NCI-H226 lung) of 4.01 µM, a TGI (NCI-H226 lung) of 45.7 µM and a GI50 (SF-268 CNS) of 2.5 µM. The TGI (SF-268 CNS) was 6.66 µM, the GI50 (TK-10 renal) was 24.3 µM and the TGI (TK-10 renal) was > 100 µM. The GI50 (EKVX NSCLC) was 28.9 µM, the TGI (EKVX NSCLC) was > 100 µM and the GI50 (MOLT-4 leukemia) was 2.2 µM. It also gave a TGI (MOLT-4 leukemia) of 10.6 µM, a GI50 (NCI-H522 lung) of 5.3 µM and a TGI (NCI-H522 lung) of 27.1 µM. The GI50 (UACC-257 melanoma) was 18.9 µM, the TGI (UACC-257 melanoma) was > 100 µM and the GI50 (A549 NSCLC) was 12.3 µM. The TGI (A549 NSCLC) was > 100 µM, the GI50 (NCI/ADR-RES ovarian) was 18.8 µM and the TGI (NCI/ADR-RES ovarian) was > 100 µM. For the same compound, the GI50 (LOX IMVI melanoma) was 8.61 µM, the TGI (LOX IMVI melanoma) was > 100 µM and the GI50 (ACHN renal) was 5.11 µM. For the same compound, the TGI (ACHN renal) was 54.5 µM, the GI50 (HCC-2998 colon) was > 100 µM and the TGI (HCC-2998 colon) was > 100 µM. The GI50 (OVCAR-8 ovarian) was 36.2 µM, the TGI (OVCAR-8 ovarian) was > 100 µM and the GI50 (HOP-62 NSCLC) was 17.9 µM. The TGI (HOP-62 NSCLC) was > 100 µM, the GI50 (UACC-62 melanoma) was 5.44 µM and the TGI (UACC-62 melanoma) was 95.4 µM. The GI50 ([…]-0 renal) was 8.3 µM, the TGI (786-0 renal) was 99.7 µM and the GI50 (RPMI-8226 leukemia) was 14.7 µM. For the same compound, the TGI (RPMI-8226 leukemia) was > 100 µM, the GI50 (T-47D breast) was 5.05 µM and the TGI (T-47D breast) was 26 µM. The GI50 (SK-OV-3 ovarian) was 9.39 µM, the TGI (SK-OV-3 ovarian) was 36.2 µM and the GI50 (SK-MEL-28 melanoma) was 29.4 µM. For the same compound, the TGI (SK-MEL-28 melanoma) was > 100 µM, the GI50 (HT29 colon) was 5.67 µM and the TGI (HT29 colon) was > 100 µM. For the same compound, the GI50 (K-562 leukemia) was 0.486 µM, the TGI (K-562 leukemia) was 1.7 µM and the GI50 (COLO 205 colon) was 12.1 µM. The TGI (COLO 205 colon) was > 100 µM, the GI50 (SNB-75 CNS) was 1.9 µM and the TGI (SNB-75 CNS) was 6.95 µM. It also gave a GI50 (NCI-H23 lung) of 1.95 µM, a TGI (NCI-H23 lung) of 23.7 µM and a GI50 (OVCAR-5 ovarian) of 19.9 µM. The TGI (OVCAR-5 ovarian) was 93.3 µM, the GI50 (NCI-H322M lung) was 31.9 µM and the TGI (NCI-H322M lung) was > 100 µM. For the same compound, the GI50 (MDA-MB-435 melanoma) was 31.1 µM, the TGI (MDA-MB-435 melanoma) was > 100 µM and the GI50 (HS 578T breast) was 2.49 µM. For the same compound, the TGI (HS 578T breast) was 7.12 µM, the GI50 (HCT-116 colon) was 21 µM and the TGI (HCT-116 colon) was > 100 µM. The GI50 (SF-295 CNS) was 2.25 µM, the TGI (SF-295 CNS) was 37.2 µM and the GI50 (MDA-MB-468 breast) was 5.2 µM. For the same compound, the TGI (MDA-MB-468 breast) was 25.2 µM, the GI50 (KM12 colon) was 3.4 µM and the TGI (KM12 colon) was > 100 µM. The GI50 (MALME-3M melanoma) was 15.9 µM, the TGI (MALME-3M melanoma) was > 100 µM and the GI50 (IGROV1 ovarian) was 3.03 µM. The TGI (IGROV1 ovarian) was 17 µM, the GI50 (UO-31 renal) was 23 µM and the TGI (UO-31 renal) was > 100 µM. It also gave a GI50 (CCRF-CEM leukemia) of 5.36 µM, a TGI (CCRF-CEM leukemia) of 28.8 µM and a GI50 (U251 glioblastoma) of 18.8 µM. The TGI (U251 glioblastoma) was > 100 µM, the GI50 (HL-60(TB) leukemia) was 29.2 µM and the TGI (HL-60(TB) leukemia) was > 100 µM. The GI50 (DU-145 prostate) was 34.8 µM, the TGI (DU-145 prostate) was > 100 µM and the GI50 (MCF7 breast) was 14.5 µM. The TGI (MCF7 breast) was > 100 µM, the GI50 (RXF 393 renal) was 2.47 µM and the TGI (RXF 393 renal) was 6.88 µM. For the same compound, the GI50 (OVCAR-4 ovarian) was 27.4 µM, the TGI (OVCAR-4 ovarian) was > 100 µM and the GI50 (A498 renal) was 8.59 µM. It also gave a TGI (A498 renal) of 81.7 µM, a GI50 (HOP-92 NSCLC) of 1.5 µM and a TGI (HOP-92 NSCLC) of 7.58 µM. For the same compound, the GI50 (SK-MEL-5 melanoma) was 8.55 µM, the TGI (SK-MEL-5 melanoma) was 33.1 µM and the GI50 (PC-3 prostate) was 10.9 µM. The TGI (PC-3 prostate) was > 100 µM, the GI50 (OVCAR-3 ovarian) was 17.7 µM and the TGI (OVCAR-3 ovarian) was > 100 µM. For the same compound, the GI50 (MDA-MB-231 breast) was 7.39 µM, the TGI (MDA-MB-231 breast) was 83.2 µM and the GI50 (SN12C renal) was 2.37 µM. For the same compound, the TGI (SN12C renal) was 19.5 µM, the GI50 (HCT-15 colon) was 8.36 µM and the TGI (HCT-15 colon) was > 100 µM. The GI50 (CAKI-1 renal) was 4.55 µM, the TGI (CAKI-1 renal) was 17.5 µM and the GI50 (SF-539 CNS) was 5.2 µM. The TGI (SF-539 CNS) was 27.8 µM, the GI50 (BT-549 breast) was 3.42 µM and the TGI (BT-549 breast) was 9.66 µM. The GI50 (SW-620 colon) was 47.2 µM, the TGI (SW-620 colon) was > 100 µM and the GI50 (M14 melanoma) was 8.36 µM. The TGI (M14 melanoma) was > 100 µM, the GI50 (SNB-19 CNS) was 49 µM and the TGI (SNB-19 CNS) was > 100 µM. For the same compound, the GI50 (NCI-H460 NSCLC) was 20.1 µM and the TGI (NCI-H460 NSCLC) was > 100 µM.
